From US9249145B2, “Heterocyclic derivatives of pyrazol-4-yl-pyrrolo[2,3-d]pyrimidines as janus kinase inhibitors” (Incyte Holdings Corporation, priority 2009, dated 2016)
Structures can show the parent of a compound that is named as a salt.

Legend:
[1] = molecular target: T1, human JAK1 (a.a. 837-1142) (Homo sapiens, UniProt P23458); assay: In vitro JAK kinase assay (HTRF, phosphorylation of biotinylated peptide), JAK1; type: biochemical; conditions: 1 mM ATP; Examples 12-91; read-out: JAK1 IC50 (nM) @ 1 mM ATP
T1 construct: The catalytic domains of human JAK1 (a.a. 837-1142); His tag (N); made in house; host or cells: insect cells (baculovirus)
T1 sequence (P23458 849-1154): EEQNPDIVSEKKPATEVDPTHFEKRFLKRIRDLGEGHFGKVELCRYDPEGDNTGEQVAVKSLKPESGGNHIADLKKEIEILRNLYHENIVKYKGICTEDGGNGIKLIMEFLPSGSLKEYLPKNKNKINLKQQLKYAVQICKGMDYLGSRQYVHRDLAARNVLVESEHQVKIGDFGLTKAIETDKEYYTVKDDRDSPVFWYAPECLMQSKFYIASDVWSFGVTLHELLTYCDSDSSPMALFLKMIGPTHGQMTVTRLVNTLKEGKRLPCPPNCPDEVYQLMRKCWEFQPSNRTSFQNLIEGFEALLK
In short: (§1)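 His-tagged catalytic domains expressed in baculovirus/insect cells; biotinylated peptide (500 nM) phosphorylation in 50 mM Tris pH 7.8, 100 mM NaCl, 5 mM DTT, 0.01% BSA, 1 h room temperature. ATP at Km (JAK1 90 μM, JAK2 30 μM) or 1 mM. EDTA stop, Eu-Py20/SA-APC HTRF read; IC50.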

Jak2 (a.a. 828-1132) = molecular target: T2, Jak2 (a.a. 828-1132) (Homo sapiens, UniProt O60674); assay: In vitro JAK kinase assay (HTRF, phosphorylation of biotinylated peptide), JAK2; type: biochemical; conditions: 1 mM ATP; Examples 12-91; read-out: JAK2 IC50 (nM) @ 1 mM ATP
T2 construct: Jak2 (a.a. 828-1132); His tag (N); made in house; host or cells: insect cells (baculovirus)
T2 sequence (O60674 828-1132): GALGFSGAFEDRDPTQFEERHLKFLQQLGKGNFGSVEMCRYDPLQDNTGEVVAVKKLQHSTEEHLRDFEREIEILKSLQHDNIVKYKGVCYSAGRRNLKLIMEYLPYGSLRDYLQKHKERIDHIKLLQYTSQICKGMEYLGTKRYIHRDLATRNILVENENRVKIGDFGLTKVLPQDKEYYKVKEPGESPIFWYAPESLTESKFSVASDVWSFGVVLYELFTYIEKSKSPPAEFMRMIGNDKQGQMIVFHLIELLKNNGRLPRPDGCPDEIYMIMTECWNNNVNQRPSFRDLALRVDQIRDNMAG
In short: as §1

Q: With N#CCC(CN1CCN(C(=O)c2cc(OC(F)(F)F)ccc2F)CC1)n1cc(-c2ncnc3[nH]ccc23)cn1 (stereo not drawn) [Example 41, 3-(4-(7H-pyrrolo[2,3-d]pyrimidin-4-yl)-1H-pyrazol-1-yl)-4-(4-(2-fluoro-5-(trifluoromethoxy)benzoyl)piperazin-1-yl)butanenitrile] as the compound, how does the IC50 [1] read?
A: Its IC50 is less than 10 nM.

Q: And the IC50 (Jak2 (a.a. 828-1132))?
A: The IC50 was 10 to 50 nM.

Q: Which IC50 [1] does the source give for N#CCC(CN1CCN(C(=O)c2cccs2)CC1)n1cc(-c2ncnc3[nH]ccc23)cn1 (stereo not drawn) [Example 42, 3-(4-(7H-pyrrolo[2,3-d]pyrimidin-4-yl)-1H-pyrazol-1-yl)-4-(4-(thiophene-2-carbonyl)piperazin-1-yl)butanenitrile] here?
A: The IC50 was less than 10 nM.

Q: And the IC50 (Jak2 (a.a. 828-1132))?
A: The IC50 was 10 to 50 nM.

Q: How did the IC50 [1] turn out when COc1cc(C(=O)N2CCN(CC(CC#N)n3cc(-c4ncnc5[nH]ccc45)cn3)CC2)ccc1F (stereo not drawn) [Example 43, 3-(4-(7H-pyrrolo[2,3-d]pyrimidin-4-yl)-1H-pyrazol-1-yl)-4-(4-(4-fluoro-3-methoxybenzoyl)piperazin-1-yl)butanenitrile] was run?
A: The IC50 was less than 10 nM.

Q: And the IC50 (Jak2 (a.a. 828-1132))?
A: The IC50 was 10 to 50 nM.

Q: How did the IC50 [1] turn out when COc1ccc(C(=O)N2CCN(CC(CC#N)n3cc(-c4ncnc5[nH]ccc45)cn3)CC2)cc1Cl (stereo not drawn) [Example 44, 3-(4-(7H-pyrrolo[2,3-d]pyrimidin-4-yl)-1H-pyrazol-1-yl)-4-(4-(3-chloro-4-methoxybenzoyl)piperazin-1-yl)butanenitrile trifluoroacetate salt] was run?
A: Its IC50 is less than 10 nM.

Q: And the IC50 (Jak2 (a.a. 828-1132))?
A: The IC50 was 10 to 50 nM.

Q: What does the source list for N#CCC(CN1CCN(C(=O)c2ccc(C(F)(F)F)cc2F)CC1)n1cc(-c2ncnc3[nH]ccc23)cn1 (stereo not drawn) [Example 45, 3-(4-(7H-pyrrolo[2,3-d]pyrimidin-4-yl)-1H-pyrazol-1-yl)-4-(4-(2-fluoro-4-(trifluoromethyl)benzoyl)piperazin-1-yl)butanenitrile trifluoroacetate salt]?
A: IC50 [1]: < 10 nM; IC50 (Jak2 (a.a. 828-1132)): 10 to 50 nM

Q: Which IC50 [1] does the source give for N#CCC(CN1CCN(C(=O)c2cc(F)cc(Cl)c2)CC1)n1cc(-c2ncnc3[nH]ccc23)cn1 (stereo not drawn) [Example 46, 3-(4-(7H-pyrrolo[2,3-d]pyrimidin-4-yl)-1H-pyrazol-1-yl)-4-(4-(3-chloro-5-fluorobenzoyl)piperazin-1-yl)butanenitrile trifluoroacetate salt] here?
A: The IC50 was less than 10 nM.

Q: What about the IC50 (Jak2 (a.a. 828-1132)) of the same compound?
A: The IC50 was 10 to 50 nM.

Q: How did the IC50 [1] turn out when Cc1cc(F)ccc1C(=O)N1CCN(CC(CC#N)n2cc(-c3ncnc4[nH]ccc34)cn2)CC1 (stereo not drawn) [Example 47, 3-(4-(7H-pyrrolo[2,3-d]pyrimidin-4-yl)-1H-pyrazol-1-yl)-4-(4-(4-fluoro-2-methylbenzoyl)piperazin-1-yl)butanenitrile] was run?
A: The IC50 was less than 10 nM.

Q: And the IC50 (Jak2 (a.a. 828-1132))?
A: The IC50 was 10 to 50 nM.

Q: With N#CCC(CN1CCN(C(=O)c2ccc(F)c(F)c2F)CC1)n1cc(-c2ncnc3[nH]ccc23)cn1 (stereo not drawn) [Example 48, 3-(4-(7H-pyrrolo[2,3-d]pyrimidin-4-yl)-1H-pyrazol-1-yl)-4-(4-(2,3,4-trifluorobenzoyl)piperazin-1-yl)butanenitrile phosphate salt] as the compound, how does the IC50 [1] read?
A: The IC50 was less than 10 nM.

Q: And the IC50 (Jak2 (a.a. 828-1132))?
A: The IC50 was 10 to 50 nM.

Q: Which IC50 [1] does the source give for N#CCC(CN1CCN(C(=O)c2ccc(F)c(OC(F)(F)F)c2)CC1)n1cc(-c2ncnc3[nH]ccc23)cn1 (stereo not drawn) [Example 49, 3-(4-(7H-pyrrolo[2,3-d]pyrimidin-4-yl)-1H-pyrazol-1-yl)-4-(4,-(4-fluoro-3-(trifluoromethoxy)benzoyl)piperazin-1-yl)butanenitrile] here?
A: Its IC50 is 10 to 50 nM.

Q: And the IC50 (Jak2 (a.a. 828-1132))?
A: The IC50 was greater than 100 nM.

Q: For N#CCC(CN1CCN(C(=O)c2ccc(F)c(F)c2)CC1)n1cc(-c2ncnc3[nH]ccc23)cn1 (stereo not drawn) [Example 50, 3-(4-(7H-pyrrolo[2,3-d]pyrimidin-4-yl)-1H-pyrazol-1-yl)-4-(4-(3,4-difluorobenzoyl)piperazin-1-yl)butanenitrile], which IC50 [1] is on record?
A: The IC50 was 10 to 50 nM.

Q: What about the IC50 (Jak2 (a.a. 828-1132)) of the same compound?
A: The IC50 was 10 to 50 nM.

Q: Which results are given for N#CCC(CN1CCN(C(=O)c2cccc(OC(F)(F)F)c2F)CC1)n1cc(-c2ncnc3[nH]ccc23)cn1 (stereo not drawn) [Example 51, 3-(4-(7H-pyrrolo[2,3-d]pyrimidin-4-yl)1H-pyrazol-1-yl)-4-(4-(2-fluoro-3-(trifluoromethoxy)benzoyl)piperazin-1-yl)butanenitrile]?
A: IC50 [1]: 10 to 50 nM; IC50 (Jak2 (a.a. 828-1132)): 10 to 50 nM

Q: Which IC50 [1] does the source give for COc1cscc1C(=O)N1CCN(CC(CC#N)n2cc(-c3ncnc4[nH]ccc34)cn2)CC1 (stereo not drawn) [Example 52, 3-(4-(7H-pyrrolo[2,3-d]pyrimidin-4-yl)-1H-pyrazol-1-yl)-4-(4-(4-methoxythiophene-3-carbonyl)piperazin-1-yl)butanenitrile] here?
A: Its IC50 is 10 to 50 nM.

Q: What about the IC50 (Jak2 (a.a. 828-1132)) of the same compound?
A: The IC50 was 50 to 100 nM.

Q: What does the source list for N#CCC(CN1CCN(C(=O)c2cc(Cl)cc(OC(F)(F)F)c2)CC1)n1cc(-c2ncnc3[nH]ccc23)cn1 (stereo not drawn) [Example 53, 3-(4-(7H-pyrrolo[2,3-d]pyrimidin-4-yl)-1H-pyrazol-1-yl)-4-(4-(3-chloro-5-(trifluoromethoxy)benzoyl)piperazin-1-yl)butanenitrile]?
A: IC50 [1]: 10 to 50 nM; IC50 (Jak2 (a.a. 828-1132)): 50 to 100 nM

Q: With N#CCC(CN1CCN(C(=O)c2ccc(O)c(Cl)c2)CC1)n1cc(-c2ncnc3[nH]ccc23)cn1 (stereo not drawn) [Example 54, 3-(4-(7H-pyrrolo[2,3-d]pyrimidin-4-yl)-1H-pyrazol-1-yl)-4-(4-(3-chloro-4-hydroxybenzoyl)piperazin-1-yl)butanenitrile trifluoroacetate salt] as the compound, how does the IC50 [1] read?
A: The IC50 was 10 to 50 nM.

Q: What about the IC50 (Jak2 (a.a. 828-1132)) of the same compound?
A: Its IC50 is 50 to 100 nM.

Q: With COc1c(F)cc(C(=O)N2CCN(CC(CC#N)n3cc(-c4ncnc5[nH]ccc45)cn3)CC2)cc1F (stereo not drawn) [Example 55, 3-(4-(7H-pyrrolo[2,3-d]pyrimidin-4-yl)-1H-pyrazol-1-yl)-4-(4-(3,5-difluoro-4-methoxybenzoyl)piperazin-1-yl)butanenitrile] as the compound, how does the IC50 [1] read?
A: Its IC50 is 10 to 50 nM.

Q: What about the IC50 (Jak2 (a.a. 828-1132)) of the same compound?
A: Its IC50 is 50 to 100 nM.

Q: Which results are given for N#CCC(CN1CCN(C(=O)c2ccc(C(F)(F)F)c(F)c2)CC1)n1cc(-c2ncnc3[nH]ccc23)cn1 (stereo not drawn) [Example 56, 3-(4-(7H-pyrrolo[2,3-d]pyrimidin-4-yl)-1H-pyrazol-1-yl)-4-(4-(3-fluoro-4-(trifluoromethyl)benzoyl)piperazin-1-yl)butanenitrile]?
A: IC50 [1]: 10 to 50 nM; IC50 (Jak2 (a.a. 828-1132)): > 100 nM

Q: What does the source list for N#CCC(CN1CCN(C(=O)c2ccc(F)c(C(F)(F)F)c2)CC1)n1cc(-c2ncnc3[nH]ccc23)cn1 (stereo not drawn) [Example 57, 3-(4-(7H-pyrrolo[2,3-d]pyrimidin-4-yl)-1H-pyrazol-1-yl)-4-(4-(4-fluoro-3-(trifluoromethyl)benzoyl)piperazin-1-yl)butanenitrile]?
A: IC50 [1]: 10 to 50 nM; IC50 (Jak2 (a.a. 828-1132)): > 100 nM

Q: Which IC50 [1] does the source give for N#CCC(CN1CCN(C(=O)c2ccccn2)CC1)n1cc(-c2ncnc3[nH]ccc23)cn1 (stereo not drawn) [Example 58, 3-(4-(7H-pyrrolo[2,3-d]pyrimidin-4-yl)-1H-pyrazol-1-yl)-4-(4-picolinoylpiperazin-1-yl)butanenitrile] here?
A: The IC50 was 10 to 50 nM.

Q: And the IC50 (Jak2 (a.a. 828-1132))?
A: Its IC50 is greater than 100 nM.

Q: Which IC50 [1] does the source give for N#CCC(CN1CCN(C(=O)c2ccc(F)cc2C(F)(F)F)CC1)n1cc(-c2ncnc3[nH]ccc23)cn1 (stereo not drawn) [Example 59] here?
A: Its IC50 is 10 to 50 nM.

Q: What about the IC50 (Jak2 (a.a. 828-1132)) of the same compound?
A: Its IC50 is greater than 100 nM.

Q: How did the IC50 [1] turn out when N#CCC(CN1CCN(S(=O)(=O)c2ccccc2C#N)CC1)n1cc(-c2ncnc3[nH]ccc23)cn1 (stereo not drawn) [Example 60, 2-(4-(2-(4-(7H-pyrrolo[2,3-d]pyrimidin-4-yl)-1H-pyrazol-1-yl)-3-cyanopropyl)piperazin-1-ylsulfonyl)benzonitrile] was run?
A: Its IC50 is less than 10 nM.

Q: What about the IC50 (Jak2 (a.a. 828-1132)) of the same compound?
A: The IC50 was less than 10 nM.

Q: What does the source list for N#CCC(CN1CCN(S(=O)(=O)c2cc(F)cc(F)c2)CC1)n1cc(-c2ncnc3[nH]ccc23)cn1 (stereo not drawn) [Example 61, 3-(4-(7H-pyrrolo[2,3-d]pyrimidin-4-yl)-1H-pyrazol-1-yl)-4-(4-(3,5-difluorophenylsulfonyl)piperazin-1-yl)butanenitrile trifluoroacetate salt]?
A: IC50 [1]: < 10 nM; IC50 (Jak2 (a.a. 828-1132)): < 10 nM

Q: N#CCC(CN1CCN(S(=O)(=O)c2cc(F)ccc2F)CC1)n1cc(-c2ncnc3[nH]ccc23)cn1 (stereo not drawn) [Example 62, 3-(4-(7H-pyrrolo[2,3-d]pyrimidin-4-yl)-1H-pyrazol-1-yl)-4-(4-(2,5-difluorophenylsulfonyl)piperazin-1-yl)butanenitrile trifluoroacetate salt] was tested. Which IC50 [1] did it give?
A: Its IC50 is less than 10 nM.

Q: And the IC50 (Jak2 (a.a. 828-1132))?
A: The IC50 was less than 10 nM.

Q: What does the source list for Cc1ccc(S(=O)(=O)N2CCN(CC(CC#N)n3cc(-c4ncnc5[nH]ccc45)cn3)CC2)nc1 (stereo not drawn) [Example 63, 3-(4-(7H-pyrrolo[2,3-d]pyrimidin-4-yl)-1H-pyrazol-1-yl)-4-(4-(5-methylpyridin-2-ylsulfonyl)piperazin-1-yl)butanenitrile]?
A: IC50 [1]: < 10 nM; IC50 (Jak2 (a.a. 828-1132)): < 10 nM

Q: Cc1cccc(S(=O)(=O)N2CCN(CC(CC#N)n3cc(-c4ncnc5[nH]ccc45)cn3)CC2)n1 (stereo not drawn) [Example 64, 3-(4-(7H-pyrrolo[2,3-d]pyrimidin-4-yl)-1H-pyrazol-1-yl)-4-(4-(6-methylpyridin-2-ylsulfonyl)piperazin-1-yl)butanenitrile] was tested. Which IC50 [1] did it give?
A: Its IC50 is less than 10 nM.

Q: And the IC50 (Jak2 (a.a. 828-1132))?
A: Its IC50 is less than 10 nM.

Q: Which IC50 [1] does the source give for N#CCC(CN1CCN(S(=O)(=O)c2cccnc2)CC1)n1cc(-c2ncnc3[nH]ccc23)cn1 (stereo not drawn) [Example 65, 3-(4-(7H-pyrrolo[2,3-d]pyrimidin-4-yl)-1H-pyrazol-1-yl)-4-(4-(pyridin-3-ylsulfonyl)piperazin-1-yl)butanenitrile] here?
A: The IC50 was less than 10 nM.

Q: What about the IC50 (Jak2 (a.a. 828-1132)) of the same compound?
A: The IC50 was 10 to 50 nM.

Q: How did the IC50 [1] turn out when N#CCC(CN1CCN(S(=O)(=O)c2ccccc2C(F)(F)F)CC1)n1cc(-c2ncnc3[nH]ccc23)cn1 (stereo not drawn) [Example 66, 3-(4-(7H-pyrrolo[2,3-d]pyrimidin-4-yl)-1H-pyrazol-1-yl)-4-(4-(2-(trifluoromethyl)phenylsulfonyl)piperazin-1-yl)butanenitrile] was run?
A: Its IC50 is less than 10 nM.

Q: And the IC50 (Jak2 (a.a. 828-1132))?
A: The IC50 was less than 10 nM.

Q: Which IC50 [1] does the source give for N#CCC(CN1CCN(S(=O)(=O)c2cccs2)CC1)n1cc(-c2ncnc3[nH]ccc23)cn1 (stereo not drawn) [Example 67, 3-(4-(7H-pyrrolo[2,3-d]pyrimidin-4-yl)-1H-pyrazol-1-yl)-4-(4-(thiophen-2-ylsulfonyl)piperazin-1-yl)butanenitrile] here?
A: Its IC50 is less than 10 nM.

Q: What about the IC50 (Jak2 (a.a. 828-1132)) of the same compound?
A: Its IC50 is less than 10 nM.
